From ChEMBL document CHEMBL3526082, “Identification of metabolites of ganoderic acid D by ultra-performance liquid chromatography/quadrupole time-of-flight mass spectrometry” (Drug Metab Dispos, 2012)
pIC50: −log10 of the molar value. Blank lines part the entries; values can stand above or below the compound they belong to.

Columns and labels:
[1] = Drug excretion in Sprague-Dawley rat bile treated with ganoderic acid D at 10 mg/kg, po after 12 hrs by UPLC/Q-TOF analysis; assay type: ADME, organism-based; set-up: dose 10 mg/kg, route oral; details: in vivo
[2] = Retention time of the compound in Sprague-Dawley rat bile by UPLC/Q-TOF analysis; assay type: ADME
Liver microsome [3] = experiment: Drug level in Sprague-Dawley rat liver microsomes assessed as compound formation treated with ganoderic acid D at 100 uM after 1 hr by UPLC/Q-TOF analysis; assay type: ADME
[4] = Drug excretion in Sprague-Dawley rat bile assessed as (6R)-6-((5R,7S,10S,13R,14R,17R)-2,7-dihydroxy-4-(hydroxymethyl)-4,10,13,14-tetramethyl-3,11,15-trioxo-2,3,4,5,6,7,10,11,12,13,14,15,16,17-tetradecahydro-1H-cyclopenta[a]phenanthren-17-yl)-2-hydroxy-2-methyl-4-oxoheptanoic acid level at 10 mg/kg, po after 12 hrs by UPLC/Q-TOF analysis; assay type: ADME, organism-based; set-up: dose 10 mg/kg, route oral; details: in vivo
[5] = Drug excretion in Sprague-Dawley rat bile assessed as 7(S) -hydroxy-11,15,23-trioxo-3-sulfooxylanost-8-en-26-oic acid level at 10 mg/kg, po after 12 hrs by UPLC/Q-TOF analysis; assay type: ADME, organism-based; set-up: dose 10 mg/kg, route oral; details: in vivo
Rattus norvegicus = experiment: Drug metabolism in Sprague-Dawley rat plasma assessed as 3,7(S)-dihydroxy-11,15,23-trioxolanost-8-en-26-oic acid level at 10 mg/kg, po by UPLC/Q-TOF analysis; assay type: ADME, organism-based; set-up: dose 10 mg/kg, route oral; details: in vivo
Plasma [6] = experiment: Drug level in Sprague-Dawley rat plasma at 10 mg/kg, po by UPLC/Q-TOF analysis; assay type: ADME, organism-based; set-up: dose 10 mg/kg, route oral; details: in vivo
Plasma [7] = experiment: Drug level in Sprague-Dawley rat plasma treated with ganoderic acid D at 10 mg/kg, po by UPLC/Q-TOF analysis; assay type: ADME, organism-based; set-up: dose 10 mg/kg, route oral; details: in vivo
[8] = Drug excretion in Sprague-Dawley rat urine assessed as parent compound at 10 mg/kg, po by UPLC/Q-TOF analysis; assay type: ADME, organism-based; set-up: dose 10 mg/kg, route oral; details: in vivo
[9] = Drug excretion in Sprague-Dawley rat urine assessed as metabolite level at 10 mg/kg, po by UPLC/Q-TOF analysis; assay type: ADME, organism-based; set-up: dose 10 mg/kg, route oral; details: in vivo
Liver microsome [10] = experiment: Drug metabolism in Sprague-Dawley rat liver microsomes assessed as 3,7(S)-dihydroxy-11,15,23-trioxolanost-8-en-26-oic acid formation at 100 uM after 1 hr by UPLC/Q-TOF analysis; assay type: ADME
Liver microsome [11] = experiment: Drug metabolism in Sprague-Dawley rat liver microsomes assessed as (6R)-6-((5R,7S,10S,13R,14R,17R)-2,7-dihydroxy-4,4,10,13,14-pentamethyl-3,11,15-trioxo-2,3,4,5,6,7,10,11,12,13,14,15,16,17-tetradecahydro-1H-cyclopenta[a]phenanthren-17-yl)-2-methyl-4-oxoheptanoic acid formation at 100 uM after 1 hr by UPLC/Q-TOF analysis; assay type: ADME
Liver microsome [12] = experiment: Drug metabolism in Sprague-Dawley rat liver microsomes assessed as (6R)-6-((5R,7S,10S,13R,14R,17R)-2,7-dihydroxy-4-(hydroxymethyl)-4,10,13,14-tetramethyl-3,11,15-trioxo-2,3,4,5,6,7,10,11,12,13,14,15,16,17-tetradecahydro-1H-cyclopenta[a]phenanthren-17-yl)-2-methyl-4-oxoheptanoic acid formation at 100 uM after 1 hr by UPLC/Q-TOF analysis; assay type: ADME
HeLa = experiment: Antiproliferative activity against human HeLa cells assessed as inhibition of cell proliferation after 48 hrs; assay type: functional, cell-based
[13] = Drug excretion in Sprague-Dawley rat bile assessed as 3,7(S)-dihydroxy-11,15,23-trioxolanost-8-en-26-oic acid level at 10 mg/kg, po after 12 hrs by UPLC/Q-TOF analysis; assay type: ADME, organism-based; set-up: dose 10 mg/kg, route oral; details: in vivo
[14] = Drug excretion in Sprague-Dawley rat bile assessed as 3,7,11,15,23-pentaoxolanost-8-en-26-oic acid level at 10 mg/kg, po after 12 hrs by UPLC/Q-TOF analysis; assay type: ADME, organism-based; set-up: dose 10 mg/kg, route oral; details: in vivo
[15] = Drug excretion in Sprague-Dawley rat bile assessed as (6R)-6-((5R,7S,10S,13R,14R)-3,7-dihydroxy-4,4,10,13,14-pentamethyl-11,15-dioxo-2,3,4,5,6,7,10,11,12,13,14,15-dodecahydro-1H-cyclopenta[a]phenanthren-17-yl)-2-methyl-4-oxoheptanoic acid level at 10 mg/kg, po after 12 hrs by UPLC/Q-TOF analysis; assay type: ADME, organism-based; set-up: dose 10 mg/kg, route oral; details: in vivo
[16] = Drug excretion in Sprague-Dawley rat bile assessed as (6R)-2-hydroxy-6-((5R,7S,10S,13R,14R,17R)-7-hydroxy-4,4,10,13,14-pentamethyl-3,11,15-trioxo-2,3,4,5,6,7,10,11,12,13,14,15,16,17-tetradecahydro-1H-cyclopenta[a]phenanthren-17-yl)-2-methyl-4-oxoheptanoic acid level at 10 mg/kg, po after 12 hrs by UPLC/Q-TOF analysis; assay type: ADME, organism-based; set-up: dose 10 mg/kg, route oral; details: in vivo
[17] = Drug excretion in Sprague-Dawley rat bile assessed as (6R)-6-((5R,7S,10S,13R,14R,17R)-7-hydroxy-4,4,10,13,14-pentamethyl-3,11,15-trioxo-2,3,4,5,6,7,10,11,12,13,14,15,16,17-tetradecahydro-1H-cyclopenta[a]phenanthren-17-yl)-2-(hydroxymethyl)-4-oxoheptanoic acid level at 10 mg/kg, po after 12 hrs by UPLC/Q-TOF analysis; assay type: ADME, organism-based; set-up: dose 10 mg/kg, route oral; details: in vivo
[18] = Drug excretion in Sprague-Dawley rat bile assessed as (6R)-6-((5R,7S,10S,13R,14R,17R)-2,7-dihydroxy-4,4,10,13,14-pentamethyl-3,11,15-trioxo-2,3,4,5,6,7,10,11,12,13,14,15,16,17-tetradecahydro-1H-cyclopenta[a]phenanthren-17-yl)-2-methyl-4-oxoheptanoic acid level at 10 mg/kg, po after 12 hrs by UPLC/Q-TOF analysis; assay type: ADME, organism-based; set-up: dose 10 mg/kg, route oral; details: in vivo
[19] = Drug excretion in Sprague-Dawley rat bile assessed as (6R)-6-((5R,7S,10S,13R,14R)-7-hydroxy-4-(hydroxymethyl)-4,10,13,14-tetramethyl-3,11,15-trioxo-2,3,4,5,6,7,10,11,12,13,14,15-dodecahydro-1H-cyclopenta[a]phenanthren-17-yl)-2-methyl-4-oxoheptanoic acid level at 10 mg/kg, po after 12 hrs by UPLC/Q-TOF analysis; assay type: ADME, organism-based; set-up: dose 10 mg/kg, route oral; details: in vivo
[20] = Drug excretion in Sprague-Dawley rat bile assessed as (6R)-6-((5R,7S,10S,13R,14R,17R)-2,7-dihydroxy-4,4,10,13,14-pentamethyl-3,11,15-trioxo-2,3,4,5,6,7,10,11,12,13,14,15,16,17-tetradecahydro-1H-cyclopenta[a]phenanthren-17-yl)-2-hydroxy-2-methyl-4-oxoheptanoic acid level at 10 mg/kg, po after 12 hrs by UPLC/Q-TOF analysis; assay type: ADME, organism-based; set-up: dose 10 mg/kg, route oral; details: in vivo
[21] = Drug excretion in Sprague-Dawley rat bile assessed as (6R)-6-((5R,7S,10S,13R,14R,17R)-2,7-dihydroxy-4,4,10,13,14-pentamethyl-3,11,15-trioxo-2,3,4,5,6,7,10,11,12,13,14,15,16,17-tetradecahydro-1H-cyclopenta[a]phenanthren-17-yl)-2-(hydroxymethyl)-4-oxoheptanoic acid level at 10 mg/kg, po after 12 hrs by UPLC/Q-TOF analysis; assay type: ADME, organism-based; set-up: dose 10 mg/kg, route oral; details: in vivo
[22] = Drug excretion in Sprague-Dawley rat bile assessed as (6R)-2-hydroxy-6-((5R,7S,10S,13R,14R,17R)-7-hydroxy-4-(hydroxymethyl)-4,10,13,14-tetramethyl-3,11,15-trioxo-2,3,4,5,6,7,10,11,12,13,14,15,16,17-tetradecahydro-1H-cyclopenta[a]phenanthren-17-yl)-2-methyl-4-oxoheptanoic acid level at 10 mg/kg, po after 12 hrs by UPLC/Q-TOF analysis; assay type: ADME, organism-based; set-up: dose 10 mg/kg, route oral; details: in vivo
[23] = Drug excretion in Sprague-Dawley rat bile assessed as (6R)-6-((5R,7S,10S,13R,14R,17R)-2,7-dihydroxy-4-(hydroxymethyl)-4,10,13,14-tetramethyl-3,11,15-trioxo-2,3,4,5,6,7,10,11,12,13,14,15,16,17-tetradecahydro-1H-cyclopenta[a]phenanthren-17-yl)-2-methyl-4-oxoheptanoic acid level at 10 mg/kg, po after 12 hrs by UPLC/Q-TOF analysis; assay type: ADME, organism-based; set-up: dose 10 mg/kg, route oral; details: in vivo

Structure (SMILES): CC(CC(=O)CC(C)(O)C(=O)O)[C@H]1CC(=O)[C@@]2(C)C3=C(C(=O)C[C@]12C)[C@@]1(C)CCC(=O)C(C)(CO)[C@@H]1C[C@@H]3O (some centres not stated)
- Drug excretion [1]: metabolite_detected
- Retention_time [2]: 7.5 min

Structure (SMILES): CC(CC(=O)CC(C)(O)C(=O)O)[C@H]1CC(=O)[C@@]2(C)C3=C(C(=O)C[C@]12C)[C@@]1(C)CCC(=O)C(C)(C)[C@@H]1C[C@@H]3O (some centres not stated)
- Drug excretion [1]: metabolite_detected
- Retention_time [2]: 10 min

Structure (SMILES): CC(CC(=O)CC(C)C1=CC(=O)[C@@]2(C)C3=C(C(=O)C[C@]12C)[C@@]1(C)CCC(=O)C(C)(C)[C@@H]1C[C@@H]3O)C(=O)O (some centres not stated)
- Drug excretion [1]: metabolite_detected
- Retention_time [2]: 11.9 min

Structure (SMILES): CC(CC(=O)CC(C)[C@H]1CC(=O)[C@@]2(C)C3=C(C(=O)C[C@]12C)[C@@]1(C)CCC(O)C(C)(C)[C@@H]1C[C@@H]3O)C(=O)O (some centres not stated)
- Drug excretion [1]: metabolite_detected
- Drug metabolism (Liver microsome [3]): metabolite_detected
- Retention_time [2]: 9.9 min

Structure (SMILES): CC(CC(=O)CC(C)[C@H]1CC(=O)[C@@]2(C)C3=C(C(=O)C[C@]12C)[C@@]1(C)CCC(=O)C(C)(C)[C@@H]1C[C@@H]3O)C(=O)O (some centres not stated)
- Drug excretion [4]: metabolite_detected
- Drug excretion [5]: metabolite_detected
- Drug metabolism (Rattus norvegicus): metabolite_detected
- Drug uptake (Plasma [6]): Active
- Drug metabolism (Plasma [7]): metabolite_detected
- Drug excretion [8]: metabolite_not_detected
- Drug excretion [9]: metabolite_not_detected
- Drug metabolism (Liver microsome [10]): metabolite_detected
- Drug metabolism (Liver microsome [11]): metabolite_detected
- Drug metabolism (Liver microsome [12]): metabolite_detected
- pIC50 (HeLa): 4.76
- Retention_time [2]: 11.3 min
- Drug excretion [13]: metabolite_detected
- Drug excretion [14]: metabolite_detected
- Drug excretion [15]: metabolite_detected
- Drug excretion [16]: metabolite_detected
- Drug excretion [17]: metabolite_detected
- Drug excretion [18]: metabolite_detected
- Drug excretion [19]: metabolite_detected
- Drug excretion [20]: metabolite_detected
- Drug excretion [21]: metabolite_detected
- Drug excretion [22]: metabolite_detected
- Drug excretion [23]: metabolite_detected

Structure (SMILES): CC(CC(=O)CC(C)(O)C(=O)O)[C@H]1CC(=O)[C@@]2(C)C3=C(C(=O)C[C@]12C)[C@@]1(C)CC(O)C(=O)C(C)(CO)[C@@H]1C[C@@H]3O (some centres not stated)
- Drug excretion [1]: metabolite_detected
- Retention_time [2]: 5.9 min

Structure (SMILES): CC(CC(=O)CC(C)[C@H]1CC(=O)[C@@]2(C)C3=C(C(=O)C[C@]12C)[C@@]1(C)CCC(=O)C(C)(C)[C@@H]1CC3=O)C(=O)O (some centres not stated)
- Drug excretion [1]: metabolite_detected
- Retention_time [2]: 11.5 min

Structure (SMILES): CC(CC(=O)CC(C)[C@H]1CC(=O)[C@@]2(C)C3=C(C(=O)C[C@]12C)[C@@]1(C)CCC(=O)C(C)(CO)[C@@H]1C[C@@H]3O)C(=O)O (some centres not stated)
- Drug excretion [1]: metabolite_detected
- Retention_time [2]: 9.2 min

The remaining lines, values ahead:

- Drug excretion [1]: metabolite_detected
- Retention_time [2]: 8.5 min
Structure (SMILES): CC(CC(=O)CC(C)[C@H]1CC(=O)[C@@]2(C)C3=C(C(=O)C[C@]12C)[C@@]1(C)CCC(OS(=O)(=O)O)C(C)(C)[C@@H]1C[C@@H]3O)C(=O)O (some centres not stated)

- Drug excretion [1]: metabolite_detected
- Drug metabolism (Liver microsome [3]): metabolite_detected
- Retention_time [2]: 7.3 min
Structure (SMILES): CC(CC(=O)CC(C)[C@H]1CC(=O)[C@@]2(C)C3=C(C(=O)C[C@]12C)[C@@]1(C)CC(O)C(=O)C(C)(CO)[C@@H]1C[C@@H]3O)C(=O)O (some centres not stated)

- Drug excretion [1]: metabolite_detected
- Retention_time [2]: 9.8 min
Structure (SMILES): CC(CC(=O)CC(CO)C(=O)O)[C@H]1CC(=O)[C@@]2(C)C3=C(C(=O)C[C@]12C)[C@@]1(C)CCC(=O)C(C)(C)[C@@H]1C[C@@H]3O (some centres not stated)

- Drug excretion [1]: metabolite_detected
- Retention_time [2]: 8 min
Structure (SMILES): CC(CC(=O)CC(CO)C(=O)O)[C@H]1CC(=O)[C@@]2(C)C3=C(C(=O)C[C@]12C)[C@@]1(C)CC(O)C(=O)C(C)(C)[C@@H]1C[C@@H]3O (some centres not stated)

- Drug excretion [1]: metabolite_detected
- Drug metabolism (Liver microsome [3]): metabolite_detected
- Retention_time [2]: 9.5 min
Structure (SMILES): CC(CC(=O)CC(C)[C@H]1CC(=O)[C@@]2(C)C3=C(C(=O)C[C@]12C)[C@@]1(C)CC(O)C(=O)C(C)(C)[C@@H]1C[C@@H]3O)C(=O)O (some centres not stated)

- Drug excretion [1]: metabolite_detected
- Retention_time [2]: 8.2 min
Structure (SMILES): CC(CC(=O)CC(C)(O)C(=O)O)[C@H]1CC(=O)[C@@]2(C)C3=C(C(=O)C[C@]12C)[C@@]1(C)CC(O)C(=O)C(C)(C)[C@@H]1C[C@@H]3O (some centres not stated)
